The source of these data is article PMC10675732 (Viruses, 2023).

One data set in a line: in vivo. The settings on record: mouse, sc.
The conditions of data set [1]: human, in vivo, po; cited from earlier work.
The next data set relates to influenza A viruses. The settings on record: range over influenza A viruses, previous study; cited from earlier work.
The conditions of data set [2]: mouse, in vivo, po; cited from earlier work.
The test system of data set [3] is Parent virus (A/PR/8/34 (H1N1)). The data set can be described thus: microbe, parasite or virus in culture. The class given is cell-based. As to conditions: Influenza A virus, plaque reduction assay. In general terms: In a plaque reduction assay, fewer plaques than in the control indicate reduced infectivity or spread.
The next data set has as its system influenza B viruses. As to conditions: range over influenza B viruses, previous study; cited from earlier work.
Data set [4] has as its system A/PR/8/34 (H1N1). As to conditions: viral yield; cited from earlier work.
Data set [5] deals with B/Hong Kong/5/72. As to conditions: viral yield; cited from earlier work.
For data set [6] the following is noted: cited from earlier work.
Data set [7] has as its system B/Hong Kong/5/72. The class given is in vivo, influenza B virus.
The subject of data set [8] is A/PR/8/34 (H1N1). The class given is in vivo, influenza A virus.
For data set [9], the system named is seasonal influenza A viruses. As to conditions: cited from earlier work.

Where “and” joins values, the source holds several entries; their conditions need not be identical. Equal values may be shown once. Read-outs that look alike come from different tables or passages of the source. Marks after values point to notes of the source that are not given here.

What is called half-life is the time needed for the level to fall by half in the phase considered. High values mean slow loss, low ones fast loss. Usually EC90 stands for the point of the concentration-response curve where the effect stands at 90%. As a reminder, the EC50 is the midpoint of the concentration-response curve. In the case of `O=C1c2c(O)c(=O)ccn2N([C@@H]2c3ccccc3SCc3c2ccc(F)c3F)[C@@H]2COCCN12` [baloxavir acid], the half-life was 74.2 h in “in vivo” (female, BALB/c, 3.2 mg/kg); 84.2 h in the data set “in vivo” (female, BALB/c, 6.4 mg/kg); 49.9 h in “in vivo” (10 mg/kg). Also, the “Half-life of baloxavir acid in humans” value in data set [1] was 49 to 91 h. Besides, the EC90 with influenza A viruses was 0.46 to 0.98 nM; in the data set on influenza B viruses it was 2.2 to 6.5 nM; in the data set on A/PR/8/34 (H1N1) [4], 0.79 nM; in the data set with B/Hong Kong/5/72 [5], 2.2 nM. In data set [2], the “Half-life of baloxavir acid in plasma” value is 2.2 to 3.1 h. Besides, the EC50 in data set [3] is 1.69 ± 0.57 nM. The Plasma concentration is 44.0 ng/mL in data set [6] (10 mg/kg s.c. single dose, 2 h after dosing); 47.2 ng/mL in [6] (10 mg/kg s.c. single dose, 4 h after dosing); 34.4 ng/mL in data set [6] (10 mg/kg s.c. single dose, 8 h after dosing); 17.8 ng/mL in [6] (10 mg/kg s.c. single dose, 48 h after dosing); 6.79 ng/mL in data set [6] (10 mg/kg s.c. single dose, 120 h after dosing); 6.51 ng/mL in data set [6] (10 mg/kg s.c. single dose, 168 h after dosing). Besides, the Plasma concentration is recorded as 5.97 ng/mL in data set [6] (10 mg/kg s.c. single dose, 216 h after dosing) and 26.1 ng/mL in data set [6] (mouse, in vivo). Besides, the “Body weight loss induced by infection” value in the data set with B/Hong Kong/5/72 [7] (in vivo) and with A/PR/8/34 (H1N1) [8] (in vivo) was “suppressed body weight loss” in each case. For the same compound, the “Mortality due to infection” value in the data set on B/Hong Kong/5/72 [7] (in vivo) and with A/PR/8/34 (H1N1) [8] (in vivo) was “completely eliminated mortality” each time. Moreover, the Survival result with B/Hong Kong/5/72 [7] (in vivo) and with A/PR/8/34 (H1N1) [8] (in vivo) was “all mice survived” in each case. The “Survival Rate” value is 50 * % and 100 ** % and 80 * % and 50% in the data set with B/Hong Kong/5/72 [7] (in vivo); 100 ** % in the data set with A/PR/8/34 (H1N1) [8] (in vivo). This compound yielded a Survival rate with B/Hong Kong/5/72 [7] (in vivo) of no more than 50%. In addition, the Survival vs vehicle entry in the data set on B/Hong Kong/5/72 [7] (in vivo) was “significantly improved survival”. For the same compound, the “Virus titres in the lungs compared to the oseltamivir phosphate group” value with B/Hong Kong/5/72 [7] (in vivo) and in the data set with A/PR/8/34 (H1N1) [8] (in vivo) was “significantly lower” throughout. The “Virus titres in the lungs compared to the vehicle-treated group” value was “significantly low” in the data set with B/Hong Kong/5/72 [7] (in vivo, sc, 10 mg/kg) and “significantly low” in the data set on A/PR/8/34 (H1N1) [8] (in vivo). For the same compound, the Mortality entry in the data set on A/PR/8/34 (H1N1) [8] (in vivo) is given as “complete elimination of mortality”. Further, the “mean EC50 against seasonal influenza A viruses relative to influenza B viruses” value in data set [9] is listed as “five to ten times lower”.

With `NC(=O)c1nc(F)c[nH]c1=O` [Favipiravir], the concentration giving a half-maximal response (EC50) in [3] was 22300 ± 1010 nM.

Turning to `CCOC(=O)C1=C[C@@H](OC(CC)CC)[C@H](NC(C)=O)[C@@H](N)C1` [oseltamivir phosphate], the “Body weight loss induced by infection” value in the data set with B/Hong Kong/5/72 [7] (in vivo) and in the data set on A/PR/8/34 (H1N1) [8] (in vivo) was “suppressed body weight loss” each time. Moreover, the values for the Mice survived in the data set on B/Hong Kong/5/72 [7] (n = 10) and in the data set with A/PR/8/34 (H1N1) [8] (n = 10) were 70% and 100%, respectively. For the same compound, in the data set with A/PR/8/34 (H1N1) [8] (in vivo), the “Virus titres in the lungs compared to the vehicle-treated group” value is on record as “significantly low”.
